Our source for the CC50 and EC50 values is patent publication US8143394B2, “Pyrido(3,2-d)pyrimidines useful for treating viral infections” (Gilead Sciences, Inc., priority 2006, dated 2012).

Where two headings read alike, the source gives them in different places.

The nature of data set [1]: CC50 assay (CellTiter-Glo) in Huh-7 HCV replicon cells. It is filed as cell-based, human. The settings on record: human, 50% cytostatic concentration. The method, then: (§1) The anti-HCV activity of the pyrido[3,2-d]pyrimidine derivatives of this invention was tested in a human hepatoma Huh-7 cell line harbouring a HCV replicon. The assay comprised the following steps:
(§2) Step 1: Compound Preparation and Serial Dilution
(§3) • 1. for water soluble pyrido[3,2-d]pyrimidine derivatives, a volume of 500 μL of solution in cell media (DMEM, 10% FBS, P/S, L-Glutamine) was prepared with a concentration being twice the concentration of the starting final serial dilution concentration. A volume of 150 μL of the solution was added to the pre-specified wells in column 1 of a 96-well cell culture plate (PerkinElmer, white plate, cat. #6005181, for EC50 assay; black plate, cat. #6005182 for CC50 assay). The rest of the plate, columns 2-12, was filled with 100 μL of cell media. The plate was then placed on a Precision 2000 Workstation to start the serial dilution. Compounds were diluted three times each step from column 1 to column 10. Column 11 was used as a blank control (no compound added). • 2. for pyrido[3,2-d]pyrimidine derivatives requiring DMSO to dissolve, serial dilution is performed in 50% DMSO in a 384-well plate. A solution containing a compound at 100-fold concentration of the starting final serial dilution concentration was prepared in 50% DMSO and added to the pre-specified wells in column 1 of a polypropylene 384-well plate. The plate was then placed on a Precision 2000 Workstation to start the serial dilution. After the serial dilution, a volume of 2 μL of the solution was transferred from the 384-well plate to a 96-well cell culture plate containing 100 μL of cell media on a Biomek FX Workstation. The DMSO concentration in the final assay condition was 0.5% after cells are added to the plate and the total volume in each well is brought to 200 μL. Step 2: to each well of the serial dilution plate prepared above, 100 μL of cell media containing 6000 suspended Huh-7 HCV replicon cells was added with a Multidrop workstation. The plates were incubated for 3 days at 37° C. with 5% CO2. Step 3: Detection: • a) for the EC50 assay, the media in a 96-well cell culture plate was aspirated with a Biotek EL405 plate-washer. A volume of 200 μL of a solution containing a 1:1 mixture of cell-lysis buffer (Promega, Luciferase Cell Culture Lysis 5X Reagent, cat. #E1531) and luciferase substrate solution (Promega, Luciferase Assay, cat. # E4550) was added to each well of the plate with Multidrop. The plate was incubated for 30 minutes at room temperature before the luminescence signal was measured with a TopCount plate-reader. • b) for the CC50 assay, a volume of 100 μL of pre-mixed CellTiter-Glo (Promega, cat. # G7572) solution is added directly to the cell culture in each well of the plate and the luminescence signal is measured with a TopCount plate-reader after 10 minutes of incubation at room temperature.
(§4) Results in table 13 are expressed by the following data: • the 50% effective concentration (EC50), i.e. the concentration that protects 50% of the cell monolayer from virus-induced cythopathic effect, and • the 50% cytostatic concentration (CC50), i.e. the concentration that results in 50% inhibition of cell growth.

The next data set has as its system HCV replicon. Nature of the data set: Anti-HCV replicon assay (EC50, luciferase readout). The settings on record: Hepatitis C virus. It is filed as cell-based. The protocol: as §1, §2, §3, §4
Setting [2] is: 72 h, human hepatoma Huh-7 cell line harbouring a HCV replicon, 3 days, luciferase, read-out: EC50.

Regarding `CC(C)(N)C(=O)Nc1ccc(-c2ccc3nc(N)nc(O[C@@H]4CCOC4)c3n2)cc1` [Example 25, 2-Amino-N-{4-[2-amino-4-(tetrahydro-furan-3-yloxy)-pyrido[3,2-d]pyrimidin-6-yl]-phenyl}-2-methyl-propionamide], the CC50 at 3 days in data set [1] lay within 10 to 20 µM. Besides, the concentration for a half-maximal effect (EC50) in the data set on HCV replicon (setting [2]) is below 0.3 µM.
In the same order, the values of `CS(=O)(=O)Nc1cccc(-c2ccc3nc(N)nc(O[C@@H]4CCOC4)c3n2)c1` [Example 26, N-{3-[2-Amino-4-(tetrahydro-furan-3-yloxy)-pyrido[3,2-d]pyrimidin-6-yl]-phenyl}-methanesulfonamide] are above 20 µM and below 0.3 µM.
In the same order, the values of `CC(C)C(=O)Nc1ccc(-c2ccc3nc(N)nc(O[C@H]4CCOC4)c3n2)cc1` [Example 27, N-{4-[2-Amino-4-(tetrahydro-furan-3-yloxy)-pyrido[3,2-d]pyrimidin-6-yl]-phenyl}-isobutyramide] are above 20 µM and below 0.3 µM.
In the same order, the values of `Nc1nc(O[C@@H]2CCOC2)c2nc(-c3ccc(N4CCCC4=O)cc3)ccc2n1` [Example 28, 1-{4-[2-Amino-4-(tetrahydro-furan-3-yloxy)-pyrido[3,2-d]pyrimidin-6-yl]-phenyl}-pyrrolidin-2-one] are above 20 µM and below 0.3 µM.
On to `CC(C)Oc1nc(N)nc2ccc(-c3ccc(NC(=O)C(C)C)cc3)nc12` [Example 29, N-[4-(2-amino-4-isopropoxy-pyrido[3,2-d]pyrimidin-6-yl)-phenyl]-isobutyramide], for which the CC50 at 3 days in data set [1] is above 20 µM. Besides, in the data set on HCV replicon (setting [2]), the EC50 is below 0.3 µM.
The matching figures for `CCOc1nc(N)nc2ccc(-c3ccc(NC(=O)C4(N)CC4)c(F)c3)nc12` [Example 30, 1-Amino-cyclopropanecarboxylic acid [4-(2-amino-4-ethoxy-pyrido[3,2-d]pyrimidin-6-yl)-2-fluoro-phenyl]-amide]: above 20 µM and below 0.3 µM.
Consider `CCOc1nc(N)nc2ccc(-c3ccc(Nc4nccs4)cc3)nc12` [Example 31], for which the CC50 at 3 days in data set [1] fell in the range of 10 to 20 µM. Besides, the concentration for a half-maximal effect (EC50) in the data set on HCV replicon (setting [2]) was in the range of 0.3 to 1 µM.
The matching figures for `CCOc1nc(N)nc2ccc(-c3ccc(Nc4nncs4)cc3)nc12` [Example 32, 4-Ethoxy-6-[4-([1,3,4]thiadiazol-2-ylamino)-phenyl]-pyrido[3,2-d]pyrimidin-2-ylamine]: above 20 µM and 0.3 to 1 µM.
In the same order, the values of `CCOc1nc(N)nc2ccc(-c3ccc(NC(=O)C4(O)CC4)cc3)nc12` [Example 33, 1-Hydroxy-cyclopropanecarboxylic acid [4-(2-amino-4-ethoxy-pyrido[3,2-d]pyrimidin-6-yl)-phenyl]-amide] are above 20 µM and below 0.3 µM.
The matching figures for `CCOc1nc(N)nc2ccc(-c3ccc(NC(=O)[C@H](C)N)c(F)c3)nc12` [Example 34, 2-Amino-N-[4-(2-amino-4-ethoxy-pyrido[3,2-d]pyrimidin-6-yl)-2-fluoro-phenyl]-propanamide]: above 20 µM and below 0.3 µM.
In data set [1], `CCOc1nc(N)nc2ccc(-c3cccc(NS(=O)(=O)CC(F)(F)F)c3)nc12` [Example 35, 2,2,2-Trifluoro-ethanesulfonic acid [3-(2-amino-4-ethoxy-pyrido[3,2-d]pyrimidin-6-yl)-phenyl]-amide] yielded a cytotoxic concentration (CC50) at 3 days above 20 µM. The 50% effective concentration (EC50) in the data set on HCV replicon (setting [2]) fell in the range of 0.3 to 1 µM.
With `CCOc1nc(N)nc2ccc(-c3ccc(NC(=O)C4(N)CC4)cc3)nc12` [Example 36, 1-Amino-cyclopropanecarboxylic acid [4-(2-amino-4-ethoxy-pyrido[3,2-d]pyrimidin-6-yl)-phenyl]-amide], the CC50 at 3 days in data set [1] is above 20 µM. In addition, the EC50 with HCV replicon (setting [2]) is below 0.3 µM.
In data set [1], `CCOc1nc(N)nc2ccc(-c3ccc(NC(=O)C(C)(C)N)cc3)nc12` [Example 37, 2-Amino-N-[4-(2-amino-4-ethoxy-pyrido[3,2-d]pyrimidin-6-yl)-phenyl]-2-methyl-propionamide] displayed a cytotoxic concentration (CC50) at 3 days above 20 µM. Moreover, the half-maximal effective concentration (EC50) in the data set with HCV replicon (setting [2]) is below 0.3 µM.
On to `CCOc1nc(N)nc2ccc(-c3ccc(NC(=O)[C@H](C)N)c(OC)c3)nc12` [Example 38, 2-Amino-N-[4-(2-amino-4-ethoxy-pyrido[3,2-d]pyrimidin-6-yl)-2-methoxy-phenyl]-propionamide], for which the half-maximal cytotoxic concentration (CC50) at 3 days in data set [1] is above 20 µM. In addition, the concentration for a half-maximal effect (EC50) in the data set with HCV replicon (setting [2]) was below 0.3 µM.
The matching figures for `CCOc1nc(N)nc2ccc(-c3ccc(NC(=O)C4CC4)cc3)nc12` [Example 39, Cyclopropanecarboxylic acid [4-(2-amino-4-ethoxy-pyrido[3,2-d]pyrimidin-6-yl)-phenyl]-amide]: above 20 µM and below 0.3 µM.
In data set [1], `CCOc1nc(N)nc2ccc(-c3cccc(NS(=O)(=O)c4ccc(C)cc4)c3)nc12` [Example 40] came in with a half-maximal cytotoxic concentration (CC50) at 3 days above 20 µM. Also, the EC50 with HCV replicon (setting [2]) was 0.3 to 1 µM.
On to `CCOc1nc(N)nc2ccc(-c3ccc(NC(=O)[C@@H](N)CO)cc3)nc12` [Example 41, 2-Amino-N-[4-(2-amino-4-ethoxy-pyrido[3,2-d]pyrimidin-6-yl)-phenyl]-3-hydroxy-propionamide], for which the cytotoxic concentration (CC50) at 3 days in data set [1] is above 20 µM. Besides, the 50% effective concentration (EC50) in the data set with HCV replicon (setting [2]) is below 0.3 µM.
With `CCOc1nc(N)nc2ccc(-c3ccc(NC(=O)[C@H](C)N)cc3)nc12` [Example 42, 2-Amino-N-[4-(2-amino-4-ethoxy-pyrido[3,2-d]pyrimidin-6-yl)-phenyl]-propionamide], the CC50 at 3 days in data set [1] was above 20 µM. The half-maximal effective concentration (EC50) in the data set on HCV replicon (setting [2]) is below 0.3 µM.
In the same order, the values of `CCOc1nc(N)nc2ccc(-c3ccc(NS(C)(=O)=O)cc3)nc12` [Example 43, N-[4-(2-Amino-4-ethoxy-pyrido[3,2-d]pyrimidin-6-yl)-phenyl]-methanesulfonamide] are above 20 µM and above 1 µM.
As to `CCOc1nc(N)nc2ccc(-c3ccc(NC(=O)OC)cc3)nc12` [Example 44, [4-(2-Amino-4-ethoxy-pyrido[3,2-d]pyrimidin-6-yl)-phenyl]-carbamic acid methyl ester], the cytotoxic concentration (CC50) at 3 days in data set [1] was above 20 µM. Also, the half-maximal effective concentration (EC50) in the data set on HCV replicon (Huh-7, 72 h) was 0.3 to 1 µM.
In the case of `CCOc1nc(N)nc2ccc(-c3cccc(NS(C)(=O)=O)c3)nc12` [Example 45, N-[3-(2-Amino-4-ethoxy-pyrido[3,2-d]pyrimidin-6-yl)-phenyl]-methanesulfonamide], the 50% cytotoxic concentration (CC50) at 3 days in data set [1] was above 20 µM. For the same molecule, the EC50 in the data set with HCV replicon (setting [2]) was below 0.3 µM.
Turning to `CCOc1nc(N)nc2ccc(-c3ccc(NC(=O)CC)cc3)nc12` [Example 46, N-[4-(2-Amino-4-ethoxy-pyrido[3,2-d]pyrimidin-6-yl)-phenyl]-propionamide], in data set [1], the CC50 at 3 days is above 20 µM. Moreover, the concentration for a half-maximal effect (EC50) with HCV replicon (setting [2]) was below 0.3 µM.
The matching figures for `CCOc1nc(N)nc2ccc(-c3ncc(N)s3)nc12` [Example 47, 6-(5-amino-thiazol-2-yl)-4-ethoxy-pyrido[3,2-d]pyrimidin-2-ylamine]: 10 to 20 µM and below 0.3 µM.
With `CCOc1nc(N)nc2ccc(-c3cccc(NS(=O)(=O)c4cnc(NC(C)=O)s4)c3)nc12` [Example 48, N-{5-[3-(2-Amino-4-ethoxy-pyrido[3,2-d]pyrimidin-6-yl)-phenylsulfamoyl]-thiazol-2-yl}-acetamide], in data set [1], the CC50 at 3 days was above 20 µM. In addition, the EC50 with HCV replicon (setting [2]) was below 0.3 µM.
The matching figures for `CCOc1nc(N)nc2ccc(-c3cccc(NS(=O)(=O)c4cn(C)cn4)c3)nc12` [Example 49, 1-Methyl-1H-imidazole-4-sulfonic acid [3-(2-amino-4-ethoxy-pyrido[3,2-d]pyrimidin-6-yl)-phenyl]-amide]: above 20 µM and 0.3 to 1 µM.
As to `CCOc1nc(N)nc2ccc(-c3cccc(NS(=O)(=O)c4c(C)noc4C)c3)nc12` [Example 50, 3,5-Dimethyl-isoxazole-4-sulfonic acid [3-(2-amino-4-ethoxy-pyrido[3,2-d]pyrimidin-6-yl)-phenyl]-amide], the cytotoxic concentration (CC50) at 3 days in data set [1] was above 20 µM. Moreover, the 50% effective concentration (EC50) in the data set on HCV replicon (setting [2]) lay in the range of 0.3 to 1 µM.
